The values that follow come from US7612075B2, “Substituted oxoazaheterocyclyl compounds” (Aventis Pharmaceuticals Inc., priority 1998, dated 2009).

Counter-ions that a name gives are not always drawn. No end group written: not given here.

The first series deals with human cultured vascular smooth muscle cells. The note with it: cited from earlier work.
With “TAP: named only as TAP; cited (F Bono, et al.) where the mitogenic effect of Factor Xa is said to depend on its enzymatic activity (YNRLCIKPRDWIDECDSNEGGERAYFRNGKGGCDSFWICPEDHTGADYYSSYRDCFNACI; ends and bridges not checked; cysteine pairing not given here; UniProt P17726 1-60, looked up)”, the “mitogenesis of human cultured vascular smooth muscle cells” value is on record as “inhibited”.

The test system of another series is rabbit carotid artery. As to conditions: rabbit carotid artery air-drying injury model, after vascular injury; cited from earlier work.
As for `CC(=N)N1CC[C@H](Oc2ccc([C@H](Cc3ccc4ccc(C(=N)N)cc4c3)C(=O)O)cc2)C1` [DX-9065a], the neointimal proliferation result is “less neointimal proliferation”.

The next series deals with rat cultured vascular smooth muscle cells. As to conditions: cited from earlier work.
In the case of “TAP: named only as TAP; cited (F Bono, et al.) where the mitogenic effect of Factor Xa is said to depend on its enzymatic activity (YNRLCIKPRDWIDECDSNEGGERAYFRNGKGGCDSFWICPEDHTGADYYSSYRDCFNACI; ends and bridges not checked; cysteine pairing not given here; UniProt P17726 1-60, looked up)”, the “mitogenesis of rat cultured vascular smooth muscle cells” value is “inhibited”.

Test system in another series: not given
Details: not given
As to `Nc1n[nH]c2cc(CN3CCN(Cc4cc5ccc(Cl)cc5s4)CC3=O)ccc12` [Example 874, 1-(3-Amino-1H-indazol-6-ylmethyl)-4-(6-chloro-benzo[b]thiophen-2-ylmethyl)-piperazin-2-one], the melting point – broadly, the temperature, or range, at which the solid turns liquid – is 246 to 248 °C.

`N=C(N)c1ccc(CN2CCN(Cc3nc4ccc(Cl)cc4[nH]3)CC2=O)cc1` (as salt: salt) [Example 122, 4-[4-(6-Chloro-1H-benzoimidazol-2-ylmethyl)-2-oxo-piperazin-1-ylmethyl]-benzamidine]: the melting point lay within 91 to 95 °C.

In turn, `C[C@H]1CN(Cc2ccc3c(N)ncnc3c2)C(=O)[C@H](C)N1S(=O)(=O)c1cc2ccc(Cl)cc2s1` [Example 668, (3S, 5S)-1-(4-Amino-quinazolin-7-ylmethyl)-4-(6-chloro-benzo[b]thiophen-2-sulfonyl)-3,5-dimethyl-piperazin-2-one] displayed a melting point of 224 to 226 °C.

Compound `Nc1n[nH]c2cc(CN3CCN(S(=O)(=O)c4cc5ccc(Cl)cc5s4)CC3=O)ccc12` [Example 876, 1-(3-Amino-1H-indazol-6-ylmethyl)-4-(6-chloro-benzo[b]thiophene-2-sulfonyl)-piperazin-2-one] showed a melting point of 274 to 276 °C.

Consider `C[C@H]1CN(Cc2ccc3c(N)ncnc3c2)C(=O)[C@H](C)N1C(=O)C=Cc1ccc(Cl)s1` (as salt: salt) [Example 669, (3S, 5S)-1-(4-Amino-quinazolin-7-ylmethyl)-4-[3-(5-chloro-thiophen-2-yl)-acryloyl]-3,5-dimethyl-piperazin-2-one], for which the melting point is 116 to 120 °C.

`C[C@@H]1CN(Cc2ccc3c(N)ncnc3c2)C(=O)[C@H](C)N1CC=Cc1ccc(Cl)s1` (as salt: trifluoroacetic acid salt) [Example 665, (3S,5R)-1-(4-Amino-quinazolin-7-ylmethyl)-4-[3-(5-chloro-thiophen-2-yl)-allyl]-3,5-dimethyl-piperazin-2-one] registered a melting point of 67 to 70 °C.

Take `Nc1ncnc2cc(CN3CCC(Cc4nc5ccc(Cl)cc5[nH]4)CC3=O)ccc12` (stereo not drawn) [Example 816, 1-(4-Amino-quinazolin-7-ylmethyl)-4-(6-chloro-1H-benzoimidazol-2-ylmethyl)-piperidin-2-one]: the melting point lay in the range of 128 to 132 °C.

Compound `C[C@H]1CN(Cc2ccc3c(N)ncnc3c2)C(=O)[C@H](C)N1S(=O)(=O)C=Cc1ccc(Cl)s1` [Example 667, (3S, 5S)-1-(4-Amino-quinazolin-7-ylmethyl)-4-[2-(5-chloro-thiophen-2-yl)-ethenesulfonyl]-3,5-dimethyl-piperazin-2-one] yielded a melting point of 218 to 221 °C.

The compound `N=C(N)c1ccc(CN2CCC(Cc3nc4ccc(Cl)cc4[nH]3)CC2=O)cc1` (stereo not drawn) (as salt: salt) [Example 815, 4-[4-(6-Chloro-1H-benzoimidazol-2-ylmethyl)-2-oxo-piperidin-1-ylmethyl]-benzamidine] displayed a melting point of 105 to 110 °C.
